# Key:
# [1] = system: redroot pigweed; test: Test Example 4: herbicidal effect by soil treatment (Table 19, symbol N); format: in vivo, redroot pigweed (Amaranthus retroflexus); conditions: amount of applied herbicide 320 g/ha
# How it was run: (§1)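 Applied as a water-diluted emulsion, the compound was sprayed onto soil covering newly sown seeds. Evaluation came three weeks after application, in a greenhouse held at 25° C. to 30° C.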
# [2] = system: redroot pigweed; test: Test Example 5: herbicidal effect by foliage application, plastic box (Table 20, symbol N); format: in vivo, redroot pigweed (Amaranthus retroflexus); conditions: foliage application after 14-day growth, evaluated three weeks after application
# How it was run: (§2)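 Sow seeds spot-wise in sterilized diluvial soil; cover with ~1.5 cm soil. Grow 14 days in greenhouse, 25° C. to 30° C. Spray foliage with emulsion diluted to predetermined amount. Rate effect after 3 weeks.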
# [3] = system: green foxtail; test: Test Example 5: herbicidal effect by foliage application, plastic box (Table 20, symbol G); format: in vivo, green foxtail (Setaria viridis); conditions: foliage application after 14-day growth, evaluated three weeks after application
# How it was run: as §2
# [4] = system: southern crabgrass; test: Test Example 4: herbicidal effect by soil treatment (Table 19, symbol F); format: in vivo, southern crabgrass (Digitaria ciliaris); conditions: amount of applied herbicide 320 g/ha
# How it was run: as §1
# [5] = system: southern crabgrass; test: Test Example 5: herbicidal effect by foliage application, plastic box (Table 20, symbol F); format: in vivo, southern crabgrass (Digitaria ciliaris); conditions: foliage application after 14-day growth, evaluated three weeks after application
# How it was run: as §2
# [6] = system: windgrass; test: Test Example 5: herbicidal effect by foliage application, plastic box (Table 20, symbol L); format: in vivo, windgrass (Apera spica-venti); conditions: foliage application after 14-day growth, evaluated three weeks after application
# How it was run: as §2
# [7] = system: blackgrass; test: Test Example 4: herbicidal effect by soil treatment (Table 19, symbol J); format: in vivo, blackgrass (Alopecurus myosuroides); conditions: amount of applied herbicide 320 g/ha
# How it was run: as §1
# [8] = system: chickweed; test: Test Example 4: herbicidal effect by soil treatment (Table 19, symbol P); format: in vivo, common chickweed (Stellaria media); conditions: amount of applied herbicide 320 g/ha
# How it was run: as §1
# [9] = system: lambsquarters; test: Test Example 5: herbicidal effect by foliage application, plastic box (Table 20, symbol O); format: in vivo, lambsquarters (Chenopodium album); conditions: foliage application after 14-day growth, evaluated three weeks after application
# How it was run: as §2
# [10] = system: Chinese sprangletop; test: Test Example 3: herbicidal effect by foliage application, Wagner pot (Table 18, symbol D); format: in vivo, chinese sprangletop (Leptochloa chinensis); conditions: 320 g/ha
# How it was run: (§3)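 Plants were sown in alluvial soil held under 0.1–0.5 cm standing water and grown 14 days in a greenhouse at 25–30 °C. An emulsifiable formulation, water-diluted to the set dose, was then sprayed onto the foliage, and effects were scored three weeks later using previously defined criteria.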
# [11] = system: wild oat; test: Test Example 5: herbicidal effect by foliage application, plastic box (Table 20, symbol I); format: in vivo, wild oat (Avena fatua); conditions: foliage application after 14-day growth, evaluated three weeks after application
# How it was run: as §2
# [12] = system: lambsquarters; test: Test Example 4: herbicidal effect by soil treatment (Table 19, symbol O); format: in vivo, lambsquarters (Chenopodium album); conditions: amount of applied herbicide 320 g/ha
# How it was run: as §1
# [13] = system: wild oat; test: Test Example 4: herbicidal effect by soil treatment (Table 19, symbol I); format: in vivo, wild oat (Avena fatua); conditions: amount of applied herbicide 320 g/ha
# How it was run: as §1
# [14] = system: rice flat sedge; test: Test Example 3: herbicidal effect by foliage application, Wagner pot (Table 18, symbol E); format: in vivo, rice flat sedge (Cyperus iria); conditions: 320 g/ha
# How it was run: as §3
# [15] = system: barnyard grass; test: Test Example 3: herbicidal effect by foliage application, Wagner pot (Table 18, symbol H); format: in vivo, barnyard grass (Echinochloa crus-galli); conditions: 320 g/ha
# How it was run: as §3
# [16] = system: barnyard grass; test: Test Example 4: herbicidal effect by soil treatment (Table 19, symbol H); format: in vivo, barnyard grass (Echinochloa crus-galli); conditions: amount of applied herbicide 320 g/ha
# How it was run: as §1
# [17] = system: persian speedwell; test: Test Example 4: herbicidal effect by soil treatment (Table 19, symbol R); format: in vivo, Persian speedwell (Veronica persica); conditions: amount of applied herbicide 320 g/ha
# How it was run: as §1
# [18] = system: chickweed; test: Test Example 5: herbicidal effect by foliage application, plastic box (Table 20, symbol P); format: in vivo, common chickweed (Stellaria media); conditions: foliage application after 14-day growth, evaluated three weeks after application
# How it was run: as §2
# [19] = system: Italian ryegrass; test: Test Example 5: herbicidal effect by foliage application, plastic box (Table 20, symbol K); format: in vivo, Italian ryegrass (Lolium multiflorum); conditions: foliage application after 14-day growth, evaluated three weeks after application
# How it was run: as §2
# [20] = system: barnyard grass; test: Test Example 5: herbicidal effect by foliage application, plastic box (Table 20, symbol H); format: in vivo, barnyard grass (Echinochloa crus-galli); conditions: foliage application after 14-day growth, evaluated three weeks after application
# How it was run: as §2
# [21] = system: blackgrass; test: Test Example 5: herbicidal effect by foliage application, plastic box (Table 20, symbol J); format: in vivo, blackgrass (Alopecurus myosuroides); conditions: foliage application after 14-day growth, evaluated three weeks after application
# How it was run: as §2
# [22] = system: Italian ryegrass; test: Test Example 4: herbicidal effect by soil treatment (Table 19, symbol K); format: in vivo, Italian ryegrass (Lolium multiflorum); conditions: amount of applied herbicide 320 g/ha
# How it was run: as §1
# [23] = system: velvetleaf; test: Test Example 4: herbicidal effect by soil treatment (Table 19, symbol M); format: in vivo, velvetleaf (Abutilon theophrasti); conditions: amount of applied herbicide 320 g/ha
# How it was run: as §1
# [24] = system: velvetleaf; test: Test Example 5: herbicidal effect by foliage application, plastic box (Table 20, symbol M); format: in vivo, velvetleaf (Abutilon theophrasti); conditions: foliage application after 14-day growth, evaluated three weeks after application
# How it was run: as §2
# [25] = system: green foxtail; test: Test Example 4: herbicidal effect by soil treatment (Table 19, symbol G); format: in vivo, green foxtail (Setaria viridis); conditions: amount of applied herbicide 320 g/ha
# How it was run: as §1
# [26] = system: persian speedwell; test: Test Example 5: herbicidal effect by foliage application, plastic box (Table 20, symbol R); format: in vivo, Persian speedwell (Veronica persica); conditions: foliage application after 14-day growth, evaluated three weeks after application
# How it was run: as §2
# [27] = amount of applied herbicide 320 g/ha
compound,measurement,setting,value
Cc1nn(C)c(=O)c(-c2c(-c3ccc(C(F)(F)F)cc3)sc3c(F)cccc23)c1O [4-044],"Herbicidal effect by soil treatment, N: redroot pigweed",[1],0 (Herbicidal rate of 5% or less (almost no effect))
same,herbicidal effect on N: redroot pigweed (evaluation grade 0-5),[2]; 320 g/ha,4 (Herbicidal rate of 70% or more and less than 90%)
same,herbicidal effect on G: green foxtail (evaluation grade 0-5),[3]; 320 g/ha,1 (Herbicidal rate of 5% or more and less than 20%)
same,"Herbicidal effect by soil treatment, F: southern crabgrass",[4],0 (Herbicidal rate of 5% or less (almost no effect))
same,herbicidal effect on F: southern crabgrass (evaluation grade 0-5),[5]; 320 g/ha,0 (Herbicidal rate of 5% or less (almost no effect))
same,herbicidal effect on L: windgrass (evaluation grade 0-5),[6]; 320 g/ha,5 (Herbicidal rate of 90% or more (almost completely withered))
same,"Herbicidal effect by soil treatment, J: blackgrass",[7],0 (Herbicidal rate of 5% or less (almost no effect))
same,"Herbicidal effect by soil treatment, P: chickweed",[8],1 (Herbicidal rate of 5% or more and less than 20%)
same,herbicidal effect on O: lambsquarters (evaluation grade 0-5),[9]; 320 g/ha,3 (Herbicidal rate of 40% or more and less than 70%)
same,herbicidal effect on Chinese sprangletop (D),[10],5 (Herbicidal rate of 90% or more (almost completely withered))
same,herbicidal effect on I: wild oat (evaluation grade 0-5),[11]; 320 g/ha,0 (Herbicidal rate of 5% or less (almost no effect))
same,"Herbicidal effect by soil treatment, O: lambsquarters",[12],0 (Herbicidal rate of 5% or less (almost no effect))
same,"Herbicidal effect by soil treatment, I: wild oat",[13],0 (Herbicidal rate of 5% or less (almost no effect))
same,herbicidal effect on rice flat sedge (E),[14],5 (Herbicidal rate of 90% or more (almost completely withered))
same,herbicidal effect on barnyard grass (H),[15],5 (Herbicidal rate of 90% or more (almost completely withered))
same,"Herbicidal effect by soil treatment, H: barnyard grass",[16],0 (Herbicidal rate of 5% or less (almost no effect))
same,"Herbicidal effect by soil treatment, R: persian speedwell",[17],3 (Herbicidal rate of 40% or more and less than 70%)
same,herbicidal effect on P: chickweed (evaluation grade 0-5),[18]; 320 g/ha,5 (Herbicidal rate of 90% or more (almost completely withered))
same,herbicidal effect on K: Italian ryegrass (evaluation grade 0-5),[19]; 320 g/ha,4 (Herbicidal rate of 70% or more and less than 90%)
same,herbicidal effect on H: barnyard grass (evaluation grade 0-5),[20]; 320 g/ha,2 (Herbicidal rate of 20% or more and less than 40%)
same,herbicidal effect on J: blackgrass (evaluation grade 0-5),[21]; 320 g/ha,0 (Herbicidal rate of 5% or less (almost no effect))
same,"Herbicidal effect by soil treatment, K: Italian ryegrass",[22],0 (Herbicidal rate of 5% or less (almost no effect))
same,"Herbicidal effect by soil treatment, M: velvetleaf",[23],0 (Herbicidal rate of 5% or less (almost no effect))
same,herbicidal effect on M: velvetleaf (evaluation grade 0-5),[24]; 320 g/ha,3 (Herbicidal rate of 40% or more and less than 70%)
same,"Herbicidal effect by soil treatment, G: green foxtail",[25],0 (Herbicidal rate of 5% or less (almost no effect))
same,herbicidal effect on R: persian speedwell (evaluation grade 0-5),[26]; 320 g/ha,5 (Herbicidal rate of 90% or more (almost completely withered))
COc1cc(F)ccc1-c1sc2cc(F)c(F)cc2c1-c1c(O)c(C)nn(C)c1=O [5-029],"N: redroot pigweed, herbicidal effect grade",[1],5 (Herbicidal rate of 90% or more (almost completely withered))
same,"Herbicidal effect by foliage application, N: redroot pigweed",[2]; [27],5 (Herbicidal rate of 90% or more (almost completely withered))
same,"Herbicidal effect by foliage application, G: green foxtail",[3]; [27],5 (Herbicidal rate of 90% or more (almost completely withered))
same,"F: southern crabgrass, herbicidal effect grade",[4],0 (Herbicidal rate of 5% or less (almost no effect))
same,"Herbicidal effect by foliage application, F: southern crabgrass",[5]; [27],3 (Herbicidal rate of 40% or more and less than 70%)
same,"Herbicidal effect by foliage application, L: windgrass",[6]; [27],5 (Herbicidal rate of 90% or more (almost completely withered))
same,"J: blackgrass, herbicidal effect grade",[7],4 (Herbicidal rate of 70% or more and less than 90%)
same,"P: chickweed, herbicidal effect grade",[8],3 (Herbicidal rate of 40% or more and less than 70%)
same,"Herbicidal effect by foliage application, O: lambsquarters",[9]; [27],5 (Herbicidal rate of 90% or more (almost completely withered))
same,herbicidal effect on Chinese sprangletop (D),[10],4 (Herbicidal rate of 70% or more and less than 90%)
same,"Herbicidal effect by foliage application, I: wild oat",[11]; [27],4 (Herbicidal rate of 70% or more and less than 90%)
same,"O: lambsquarters, herbicidal effect grade",[12],5 (Herbicidal rate of 90% or more (almost completely withered))
same,"I: wild oat, herbicidal effect grade",[13],2 (Herbicidal rate of 20% or more and less than 40%)
same,herbicidal effect on rice flat sedge (E),[14],5 (Herbicidal rate of 90% or more (almost completely withered))
same,herbicidal effect on barnyard grass (H),[15],4 (Herbicidal rate of 70% or more and less than 90%)
same,"H: barnyard grass, herbicidal effect grade",[16],0 (Herbicidal rate of 5% or less (almost no effect))
same,"R: persian speedwell, herbicidal effect grade",[17],3 (Herbicidal rate of 40% or more and less than 70%)
same,"Herbicidal effect by foliage application, P: chickweed",[18]; [27],5 (Herbicidal rate of 90% or more (almost completely withered))
same,"Herbicidal effect by foliage application, K: Italian ryegrass",[19]; [27],4 (Herbicidal rate of 70% or more and less than 90%)
same,"Herbicidal effect by foliage application, H: barnyard grass",[20]; [27],5 (Herbicidal rate of 90% or more (almost completely withered))
same,"Herbicidal effect by foliage application, J: blackgrass",[21]; [27],4 (Herbicidal rate of 70% or more and less than 90%)
same,"K: Italian ryegrass, herbicidal effect grade",[22],1 (Herbicidal rate of 5% or more and less than 20%)
same,"M: velvetleaf, herbicidal effect grade",[23],3 (Herbicidal rate of 40% or more and less than 70%)
same,"Herbicidal effect by foliage application, M: velvetleaf",[24]; [27],5 (Herbicidal rate of 90% or more (almost completely withered))
same,"G: green foxtail, herbicidal effect grade",[25],3 (Herbicidal rate of 40% or more and less than 70%)
same,"Herbicidal effect by foliage application, R: persian speedwell",[26]; [27],5 (Herbicidal rate of 90% or more (almost completely withered))

# From patent publication US20230085307A1, “PYRIDAZINONE COMPOUND AND HERBICIDE” (NISSAN CHEMICAL CORPORATION, priority 2019, published 2023)
